Reference: paper PMC11274643, “Design, Synthesis, Characterization, and Cytotoxicity of New Pyrazolylmethylene-2-thioxoimidazolidin-4-one Derivatives towards Androgen-Sensitive LNCaP Prostate Cancer Cells” (Biomolecules, 2024)

Key:
[1] = system: Wi38 normal human lung fibroblast cell line; test: MTT in vitro cytotoxicity assay, 24 h incubation; assay type: cell-based; conditions: WI-38
Experimental: (§1) The antitumor properties of pyrazolylmethylene-2-thioxoimidazolidin-4-one derivatives (3a–p) against androgen-sensitive (AR^+LNCaP; ATCC CRL-1740, Accession: CVCL_0395) and androgen-insensitive (AR^-PC-3; ATCC CRL-1435, Accession: CVCL_D5ZS) human prostate cancer cell lines in addition to normal human lung fibroblast cell line (Wi38, Accession: CVCL_2759) were evaluated by MTT assay. AR^+LNCaP, AR^-PC-3, and Wi38 cell lines were purchased frozen in liquid nitrogen from Egyptian Company for Production of Vaccines, Sera and Drugs, Cairo, Egypt (VACSERA). Tumor cell lines were stored as monolayer cultures in DMEM supplemented with 10% FBS and 1% penicillin–streptomycin. MTT assay was carried out as described previously in the literature. In brief, AR^+LNCaP, AR^-PC-3, and Wi38 cells were cultured into 96-well plates containing 100 µL of culture medium per each well. […] A control containing only culture medium was also applied. The assay was performed in triplicate. The cells were incubated overnight to grow at 37 °C in 5% CO2. After removing the growth medium, 100 µL of MTT (0.4 mg/mL of PBS) were added. After 24 h of incubation, the supernatant was removed and 100 µL of DMSO (Sigma Aldrich, Germany) were then added to each sample. Absorbance at 550 nm was measured. The formula (Reading of extract/Reading of negative control) × 100 was applied to calculate the viability percentage. The IC50 value of test compounds (3a–p) was also determined using CPE measurements of normal Wi38 cells (normal human lung fibroblast cells). The MTT assay was repeated with the test compounds (3i, 3k, 3o, 3j, 3p, and 3m) using the three cell types which were stimulated by 1 nM DHT after 48 h of incubation. IC50 values were estimated using Graph Pad Prism computer software (International Scientific Community, San Diego, CA, USA) from linear regression analysis of the concentration–response curves plotted for each tested compound [36].
(§2) In vitro cytotoxicity assay was performed to elucidate the antitumor properties of the synthesized derivatives of pyrazolylmethylene-2-thioxoimidazolidin-4-one. […] The cytotoxicity assay was performed using MTT assay as described in the Materials and Methods Section 2.4.1. The test compounds were dissolved in DMSO as stock solutions (<0.5% (v/v)) and stored in the dark at −20 °C. The human prostate cancer cells and normal human lung fibroblast cells were subjected to variable doses of the compounds for 24 h.

[2] = system: AR+LNCaP androgen-sensitive human prostate cancer cell line; test: MTT in vitro cytotoxicity assay, 24 h incubation; assay type: cell-based; conditions: for IC50: Homo sapiens, MTT; for Selective Index Wi38/Lncap: ratio of IC50 values
Experimental: as §1, §2

[3] = system: AR-PC-3 androgen-insensitive human prostate cancer cell line; test: MTT in vitro cytotoxicity assay, 24 h incubation; assay type: cell-based; conditions: for IC50: Homo sapiens, MTT; for Selective Index Wi38/PC-3: ratio of IC50 values
Experimental: as §1, §2

AR+LNCaP cells [4] = test: Cell apoptosis assay (Annexin V-FITC, flow cytometry); assay type: cell-based, human; conditions: IC50 concentration, 1 nM DHT, 24 h
Experimental: Cell apoptosis assay was performed to ensure the efficacy of compounds 3i and 3k against the progression of AR^+LNCaP tumor cell growth in the presence of 1 nM DHT. Untreated AR^+LNCaP and Enzalutamide-treated AR^+LNCaP were used in this assay as negative and positive controls, respectively. AR^+LNCaP cells were precultured in 25 cm^2 flasks. Briefly, 1 nM DHT was then added to the growing cells. […] AR^+LNCaP cells were harvested and fixed with 70% (v/v) ethanol in FBS (Sigma-Aldrich, Germany), then maintained at 4 °C overnight. The cells were resuspended in FBS containing 0.1% (v/v) Triton X-100, 40 µg/mL […], and 0.1 mg/mL RNase then incubated in a dark chamber at 37 °C for 30 min. A flow-cytometer (Becton Dickinson, San Jose, CA, USA) supplemented with an argon ion laser at a wavelength of 488 nm was used to analyze the AR^+LNCaP cell apoptotic stages. Based on the protocol described by Ozgur et al. (2003), analysis of the data was implemented using Multicycle Software (Phoenix Flow Systems, San Diego, CA, USA; http://www.phoenixflow.com/index.html).
The active compounds 3i and 3k were further analyzed to evaluate their antitumor properties against the growth of the AR^+LNCaP prostate cancer cell line. […] Untreated AR^+LNCaP cells and Enzalutamide reference drug were also used as negative and positive controls in this assay, respectively.

AR+LNCaP cells [5] = test: DNA content at cell cycle stages (Propidium Iodide flow cytometry); assay type: cell-based, human; conditions: IC50 concentration, 1 nM DHT
Experimental: The amount of DNA contents of AR^+LNCaP cells stimulated with 1 nM DHT and treated with representative test compounds 3i and 3k at the different stages of the cell cycle were quantitatively evaluated as described previously. […] The Ab139418–Propidium Iodide Flow Cytometry Kit for Cell Cycle Analysis (ab139418, Abcam, Cambridge, UK) was employed for this assay following the procedures provided by the supplier.
Firstly, the ab139418-Propidium Iodide Flow Cytometry Kit for Cell Cycle Analysis (Bio vision, Boston, MA, USA) was used to quantify DNA contents at each cell cycle stage as an indicator of the cell cycle growth arrest.

[6] = system: active human caspase-3 in AR+LNCaP cells; test: Detection of active Caspase 3 in AR+LNCaP cell lysates (Invitrogen Elisa kit); assay type: cell-based; set-up: Caspase 3 Conc. (Average): unit not given here; conditions: for active Caspase 3 fold change compared to untreated cells / induction of active caspase 3 as a percentage of the reference drug Enzalutamide: IC50 concentration; for active Caspase 3 fold change compared to untreated cells: 1 nM DHT, AR+LNCaP lysate; for induction of active caspase 3 as a percentage of the reference drug Enzalutamide: AR+LNCaP; for Caspase 3 fld / Caspase 3: LNCaP, supplement lab report; for Caspase 3 fld: fold of control; for Caspase 3 Conc. (Average): supplement ELISA read-out, average of two wells
Experimental: Untreated AR^+LNCaP and Enzalutamide-treated AR^+LNCaP were used as negative and positive controls, respectively. AR^+LNCaP cells were cultured in 96-well plates at a cell density of 1 × 10^4 cells/well. Cells were then lysed with 50 µL lysis buffer/well supplemented with the Invitrogen Elisa kit for detection of active human caspase-3 (Invitrogen, Camarillo, CA, USA). Plates were frozen at −80 °C for 30 min and then thawed. The lysate was mixed with 2 Z-DEVD-R110 substrate and incubated at room temperature for 30 min. A fluorescence microplate reader (Tecan, Mainz-Kastel, Germany), was used to measure fluorescence via excitation at 496 nm and emission detection at 520 nm. Values were normalized with total protein content. Active caspase 3 accumulation was determined based on standard dilution series of Human Caspase-3 samples provided with the kit. […]

[7] = system: Wi38 normal human lung fibroblast cell line; test: MTT cytotoxicity assay in presence of 1 nM DHT, 48 h incubation; assay type: cell-based; conditions: WI-38, read-out: IC50 Wi38
Experimental: as §1
(§3) The assay was performed in the presence of dihydrotestosterone (1 nM DHT) for 48 h of incubation as previously described. DHT is a potent inducer of androgens that enhances prostate cancer disease progression.

[8] = system: AR+LNCaP androgen-sensitive human prostate cancer cell line; test: as above; assay type: cell-based; conditions: for IC50: Homo sapiens; for Selectivity AR-/AR+: IC50 PC-3 / IC50 LNCaP
Experimental: as §1, §3

[9] = system: AR-PC-3 androgen-insensitive human prostate cancer cell line; test: as above; assay type: cell-based
Experimental: as §1, §3

Structure (SMILES) | melting point [°C] | IC50 [1] [µM] | IC50 [2] [µM] | Selective Index Wi38/Lncap [2] | IC50 [3] [µM] | Selective Index Wi38/PC-3 [3] | Early Apoptosis (%) (AR+LNCaP cells [4]) | Late Apoptosis (%) (AR+LNCaP cells [4]) | Necrotic Cells (%) (AR+LNCaP cells [4]) | Total Apoptosis (%) (AR+LNCaP cells [4]) | DNA Content (%) G0–G1 (AR+LNCaP cells [5]) [%] | active Caspase 3 fold change compared to untreated cells [6] [fold] | induction of active caspase 3 as a percentage of the reference drug Enzalutamide [6] [%] | Caspase 3 fld [6] | Caspase 3 [6] [pg/mL] | Caspase 3 Conc. (Average) [6] | CC50 [7] [µM] | IC50 [8] [µM] | Selectivity AR-/AR+ [8] | IC50 [9] [µM] | other results
Cc1ccc(-c2nn(-c3ccc(F)cc3)cc2C=C2NC(=S)NC2=O)cc1 [Compound 3m, 5-((1-(4-Fluorophenyl)-3-(p-tolyl)-1H-pyrazol-4-yl)methylene)-2-thioxoimidazolidin-4-one] | 167 to 169 | 30.54 ± 0.08 | 12.97 ± 0.06 | 2.4 | 22.5 ± 0.46 | 1.3 | – | – | – | – | – | 3.2 | 48.6 | 3.176 | 244.3 | 244.3 | 23.33 ± 0.19 | 10.5 ± 0.11 | 1.3 | 13.1 ± 0.14 | –
O=C1NC(=S)NC1=Cc1cn(-c2ccc(F)cc2)nc1-c1ccc(Cl)cc1 [Compound 3i, 5-((3-(4-Chlorophenyl)-1-(4-fluorophenyl)-1H-pyrazol-4-yl)methylene)-2-thioxoimidazolidin-4-one] | 168 to 170 | 29.93 ± 0.12 | 12.07 ± 0.09 | 2.5 | 19.5 ± 0.21 | 1.5 | 11.47 | 7.55 | 2.77 | 21.79 | 58.33 | 4.7 | 71.4 | 4.667 | 358.9 | 358.9 | 21.93 ± 0.14 | 6.08 ± 0.04 | 2.6 | 15.52 ± 0.12 | DNA Content (%) G2/M (AR+LNCaP cells [5]): 22.48%; DNA Content (%) S (AR+LNCaP cells [5]): 19.19%
O=C1NC(=S)NC1=Cc1cn(-c2ccc(F)cc2)nc1-c1ccc(Br)cc1 [Compound 3j, 5-((3-(4-Bromophenyl)-1-(4-fluorophenyl)-1H-pyrazol-4-yl)methylene)-2-thioxoimidazolidin-4-one] | 199 to 201 | 31.18 ± 0.16 | 13.9 ± 0.14 | 2.2 | 24.44 ± 0.12 | 1.5 | – | – | – | – | – | 4.2 | 63.0 | 4.115 | 316.5 | 316.5 | 21.08 ± 0.06 | 7.72 ± 0.15 | 1.8 | 14.2 ± 0.15 | –

More lines, main results first:

melting point [°C] | Structure (SMILES) | IC50 [1] [µM] | IC50 [2] [µM] | Selective Index Wi38/Lncap [2] | IC50 [3] [µM] | Selective Index Wi38/PC-3 [3] | Early Apoptosis (%) (AR+LNCaP cells [4]) | Late Apoptosis (%) (AR+LNCaP cells [4]) | Necrotic Cells (%) (AR+LNCaP cells [4]) | Total Apoptosis (%) (AR+LNCaP cells [4]) | DNA Content (%) G0–G1 (AR+LNCaP cells [5]) [%] | active Caspase 3 fold change compared to untreated cells [6] [fold] | induction of active caspase 3 as a percentage of the reference drug Enzalutamide [6] [%] | Caspase 3 fld [6] | Caspase 3 [6] [pg/mL] | Caspase 3 Conc. (Average) [6] | CC50 [7] [µM] | IC50 [8] [µM] | Selectivity AR-/AR+ [8] | IC50 [9] [µM] | other results
210 to 212 | O=C1NC(=S)NC1=Cc1cn(-c2ccc(F)cc2)nc1-c1ccc(C(F)(F)F)cc1 [Compound 3k, 5-((1-(4-Fluorophenyl)-3-(4-(trifluoromethyl)phenyl)-1H-pyrazol-4-yl)methylene)-2-thioxoimidazolidin-4-one] | 32.81 ± 0.08 | 10.3 ± 0.14 | 3.2 | 22.5 ± 0.29 | 1.5 | 12.11 | 16.89 | 6.02 | 35.02 | 65.21 | 5.4 | 81.2 | 5.304 | 407.9 | 407.9 | 19.81 ± 0.07 | 5.22 ± 0.12 | 2.7 | 13.9 ± 0.18 | DNA Content (%) G2/M (AR+LNCaP cells [5]): 19.18%; DNA Content (%) S (AR+LNCaP cells [5]): 15.61%
223 to 225 | O=C1NC(=S)NC1=Cc1cn(-c2ccc(C(F)(F)F)cc2)nc1-c1ccc(C(F)(F)F)cc1 [Compound 3p, 5-((1,3-Bis(4-(trifluoromethyl)phenyl)-1H-pyrazol-4-yl)methylene)-2-thioxoimidazolidin-4-one] | 25.35 ± 0.12 | 12.11 ± 0.08 | 2.1 | 23.2 ± 0.12 | 1.0 | – | – | – | – | – | 4.4 | 66.6 | 4.351 | 334.6 | 334.6 | 20.18 ± 0.14 | 5.91 ± 0.13 | 2.7 | 15.2 ± 0.25 | –
